In brackets after ≈: the same amount, converted by molar mass. Read-outs that look alike come from different tables or passages of the source.

This note sets out measurements from PMC7767178 (International Journal of Molecular Sciences, 2020).

The test system of one data set is pepsin. The following applies: pH 2.
The next data set deals with mice. Kind of data set: Toxic effect on mice. In kind it is in vivo. The following applies: reason for exclusion from the mouse models.
In another data set the test system is S. hyicus 437-2. It is filed as cell-based.

For the compound `CC(C)[C@@H]1NC(=O)CNC(=O)[C@H](CC(N)=O)NC(=O)[C@H](CCCNC(=N)N)NC(=O)[C@H](Cc2ccc(O)cc2)NC(=O)[C@H](C(C)C)NC(=O)[C@@H](NC(=O)[C@@H](NC(=O)[C@H](CC(N)=O)NC(=O)[C@H](Cc2c[nH]c3ccccc23)NC(=O)[C@H](C)NC(=O)[C@H](Cc2ccccc2)NC(=O)[C@H](CCCN)N=C(N(C)C)N(C)C)C(C)C)CSSC[C@@H](C(=O)N[C@@H](Cc2c[nH]cn2)C(=O)N[C@@H](CCCNC(=N)N)C(=O)N[C@@H](CCCNC(=N)N)C(=O)N[C@@H](C)C(=O)N[C@@H](CC(N)=O)C(N)=O)NC(=O)[C@H](C(C)C)NC(=O)[C@H](CCCNC(=N)N)NC1=O` (stereo in doubt) [Guo-N6NH2], the “MIC after pepsin treatment” value against pepsin was determined as 8 µg/mL (≈ 3.04 µM). The toxicity in mice result with mice is “toxic effect on mice”. In addition, the MIC in the data set on S. hyicus 437-2 stood at 12.16 µM; against S. hyicus 437-2 (S. hyicus 437-2 (clinical isolate, pig farm), broth dilution, 37 °C, 16–18 h, three experiments) it was 32 µg/mL.

Broadly, the MIC is the lowest concentration that inhibits growth of the organism.
